“Also recorded” adds a separate entry of the source. Bridge positions count the residues as written; N and C are the ends. Square brackets hold non-standard residues; d marks the D form. Peptide text beside a SMILES is read from it. R8 = C=CCCCCCC[C@@](C)(N)C(=O)O; S5 = C=CCCC[C@](C)(N)C(=O)O; Nle = CCCC[C@H](N)C(=O)O
Biological target: T1, Human E1 activating enzyme UBA1 (Homo sapiens, UniProt P22314)
T1 sequence (P22314 1-1058): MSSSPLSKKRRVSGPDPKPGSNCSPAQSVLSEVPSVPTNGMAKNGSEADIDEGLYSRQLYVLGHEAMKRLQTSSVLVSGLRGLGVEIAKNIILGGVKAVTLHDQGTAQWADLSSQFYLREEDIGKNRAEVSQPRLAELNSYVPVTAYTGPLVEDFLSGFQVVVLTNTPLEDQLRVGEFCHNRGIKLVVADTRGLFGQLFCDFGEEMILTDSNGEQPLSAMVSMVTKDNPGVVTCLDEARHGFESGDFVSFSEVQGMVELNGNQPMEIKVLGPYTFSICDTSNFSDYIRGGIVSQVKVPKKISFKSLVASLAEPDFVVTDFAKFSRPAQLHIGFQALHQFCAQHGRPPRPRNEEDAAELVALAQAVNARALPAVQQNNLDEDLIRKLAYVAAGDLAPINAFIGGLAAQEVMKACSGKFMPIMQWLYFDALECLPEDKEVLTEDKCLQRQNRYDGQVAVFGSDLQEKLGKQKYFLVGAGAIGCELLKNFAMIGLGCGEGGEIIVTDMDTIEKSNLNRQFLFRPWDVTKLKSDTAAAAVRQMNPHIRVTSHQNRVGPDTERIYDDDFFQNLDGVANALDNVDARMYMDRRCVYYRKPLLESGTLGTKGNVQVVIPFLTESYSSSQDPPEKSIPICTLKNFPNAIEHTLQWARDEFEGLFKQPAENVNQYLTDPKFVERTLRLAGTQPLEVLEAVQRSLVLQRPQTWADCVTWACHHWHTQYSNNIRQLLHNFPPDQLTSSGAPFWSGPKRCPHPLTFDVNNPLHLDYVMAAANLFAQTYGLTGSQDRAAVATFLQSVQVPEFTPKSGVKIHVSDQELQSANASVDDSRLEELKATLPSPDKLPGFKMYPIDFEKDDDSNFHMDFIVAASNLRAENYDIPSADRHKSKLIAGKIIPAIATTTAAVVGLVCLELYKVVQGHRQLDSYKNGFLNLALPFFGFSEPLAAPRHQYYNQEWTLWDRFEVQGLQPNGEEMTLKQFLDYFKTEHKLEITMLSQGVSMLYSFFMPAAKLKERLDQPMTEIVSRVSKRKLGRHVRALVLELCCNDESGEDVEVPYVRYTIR
Test: In vitro enzyme inhibition assay: E1-mediated ubiquitin thioester transfer to E2 (band shift, silver stain)
Assay type: biochemical
Conditions: for effect of nonionic detergent on inhibitory activity against UBA1: 0.01% Triton X-100 in assay buffer
Description: In vitro Enzyme Inhibition Assays: To assess an E2 hA peptide's inhibition of an E1 enzyme, an in vitro enzyme inhibition assay can be used, for example. The in vitro enzyme inhibition assay measures an E2 hA peptide's ability to inhibit conjugation of ubiquitin to E2 by E1. Briefly, recombinant E1 (e.g., UBA1), recombinant E2 (e.g., UBE2A), ubiquitin, and Mg-ATP are combined in the presence of an E2 hA peptide or vehicle control (e.g., 1% DMSO) for a period of time (e.g., 30 minutes) at room temperature in a buffer containing, e.g., 50 mM NaCl, 50 mM HEPES pH 7.5. Control reaction includes no E1. Reactions are quenched by addition of SDS-containing loading dye and samples are resolved on a gel (e.g., a 4-12% Bis-Tris protein gel) under nonreducing conditions. Proteins on the gel are visualized via, e.g., silver stain. Conjugation of ubiquitin to E2 by E1 is monitored by conversion of free E2 (˜17 kDa) to E2˜ubiquitin conjugate (˜26 kDa).
Control reaction included no E1 enzyme. Reactions were quenched by addition of SDS-containing loading dye and samples were resolved on a 4-12% Bis-Tris protein gel under nonreducing conditions. Proteins were visualized via silver stain. Conjugation of ubiquitin to E2 by E1 was monitored by conversion of free E2 (17 kDa) to E2˜ubiquitin conjugate (26 kDa).
The ability of the peptides to inhibit E1-mediated thioester transfer to E2 was evaluated. Human E1 activating enzyme UBA1 (10 nM), UbcH5b E2 enzyme (150 nM), ubiquitin (1 μM), and Mg-ATP (20 μM) were combined in the presence of stapled peptide at a range of concentrations or vehicle control (1% DMSO) for 45 minutes at room temperature in buffer containing 50 mM NaCl, 50 mM HEPES, 1 mM TCEP pH 7.5. Reactions were quenched by addition of SDS-containing loading dye and samples were resolved on a 4-12% Bis-Tris protein gel under nonreducing conditions. Proteins were visualized via silver stain. Conjugation of ubiquitin to E2 by E1 was monitored by conversion of free E2 (17 kDa) to E2˜ubiquitin conjugate (26 kDa). Inhibition percentage was calculated from densitometry of silver stain images.
Streptavidin-biotin pull-down assays: For recombinant protein pull-downs, 10 pmol recombinant human UBA1 was incubated with 5 nmol C-terminally biotinylated SAH-UBE2A or DMSO vehicle control in a total volume of 1 mL binding buffer (50 mM NaCl, 20 mM HEPES, pH 7.4, 5 mM DTT) for 1.5 hours at 4° C. 30 μL of pre-equilibrated streptavidin agarose beads were then added and incubated for an additional 1.5 hours at 4° C. The beads were pelleted by centrifugation and washed three times with NP-40 buffer (20 mM HEPES, pH 7.4, 50 mM NaCl, 5 mM DTT, 0.5% [v/v] NP-40) before eluting the protein sample from the beads by heating at 70° C. for 10 min in 3×SDS loading buffer. Samples were subjected to electrophoresis and silver staining (Pierce 24612). For pull-down from cellular lysates, 0.75 mg HeLa cell lysate was incubated with 5 nmol C-terminally biotinylated SAH-UBE2A or DMSO vehicle control in a total volume of 1 mL binding buffer (50 mM NaCl, 20 mM HEPES, pH 7.4, 5 mM DTT) containing protease-phosphatase inhibitor cocktail for 2 hours at 4° C. 30 μL of pre-equilibrated streptavidin agarose beads (ThermoFisher 20357) were then added and incubated for an additional 1.5 hours at 4° C. The beads were pelleted by centrifugation and washed three times with NP-40 buffer (20 mM HEPES, pH 7.4, 50 mM NaCl, 5 mM DTT, 0.5% [v/v] NP-40) before eluting the protein sample from the beads by heating at 70° C. for 10 min in 3×SDS loading buffer. Proteins were separated by SDS-PAGE gel electrophoresis and detected by western blot against UBE1 (Abcam ab34711). In vitro Enzyme Inhibition Assays: Recombinant human E1 activating enzyme UBA1 (10 nM), E2 enzyme (150 nM), ubiquitin (1 μM), and Mg-ATP (20 μM) are combined in the presence of peptide or vehicle control (1% DMSO) for 45 minutes at room temperature in buffer containing 50 mM NaCl, 50 mM HEPES pH 7.5. Control reaction includes no E1 enzyme. […]

CCCC[C@H](NC(C)=O)C(=O)N[C@@H](CO)C(=O)N[C@H](C(=O)N1CCC[C@H]1C(=O)N[C@]1(C)CCCCCCC=CCCC[C@@](C)(C(=O)N[C@@H](Cc2ccccc2)C(=O)N[C@@H](CCCCN)C(=O)N[C@@H](CCCNC(=N)N)C(=O)N[C@@H](CC(C)C)C(=O)N[C@@H](CCC(N)=O)C(N)=O)NC(=O)[C@H](CCCNC(=N)N)NC(=O)[C@H](CCCC)NC(=O)[C@H](CC(C)C)NC(=O)[C@H](CCCNC(=N)N)NC(=O)[C@H](CCCNC(=N)N)NC(=O)[C@H](CCCNC(=N)N)NC1=O)[C@@H](C)O [SAH-UBE2A-11, BSTPX1RRRLBRX2FKRLQ] (Ac-[Nle]STP[R8]RRRL[Nle]R[S5]FKRLQ-NH2; staple 5-12)
effect of nonionic detergent on inhibitory activity against UBA1: not affected at all by the presence of non-ionic detergent
effect of nonionic detergent on inhibitory activity against UBA1 (listed as SAH-UBE2A): no effect on the inhibitory activity of SAH-UBE2A
inhibition of E1-mediated thioester transfer to a variety of human E2 enzymes (panel of human E2 enzymes (UBE2A, UBE2B, UBE2C, UBE2D1-4 etc.)): inhibited E1-mediated thioester transfer to all human E2 enzymes tested; also recorded: inhibits E1 thioester transfer activity
inhibition of E1-mediated thioester transfer to E2, dose response (range of peptide concentrations, UbcH5b E2 enzyme, 45 minutes): inhibited E1-mediated thioester transfer to E2 in a dose-dependent manner; also recorded: most potent activity; also recorded: dose-dependently inhibit E1-mediated thioester transfer to E2

Reference: patent US12358960B2, “Selective targeting of ubiquitin- and ubiquitin-like E1-activating enzymes by structurally-stabilized peptides” (Dana-Farber Cancer Institute, Inc., priority 2019, dated 2025)
